Laboratory results as given in patent publication US20240124410A1, “SMALL MOLECULES AND THEIR USE AS MALT1 INHIBITORS” (University of Pittsburgh - Of the Commonwealth System of …, priority 2021, published 2024).

Tests used:
[1] = molecular target: T1, BCL10-MALT1 interaction (Homo sapiens, UniProt Q9UDY8); assay: SPR analysis of disruption of the BCL10-MALT1 interaction, dose-response (FIG. 2E); Biacore 2000, full-length Bcl10 (GST-tagged recombinant human, Abnova H00008915-P01) immobilized on sensor chip, MALT1 protein passed over; format: binding
T1 construct: analyte a purified recombinant MALT1 fragment (DD+Ig1-2, Sumo-tagged Ig1-2 or GB-tagged DD)
T1 sequence (Q9UDY8 1-824): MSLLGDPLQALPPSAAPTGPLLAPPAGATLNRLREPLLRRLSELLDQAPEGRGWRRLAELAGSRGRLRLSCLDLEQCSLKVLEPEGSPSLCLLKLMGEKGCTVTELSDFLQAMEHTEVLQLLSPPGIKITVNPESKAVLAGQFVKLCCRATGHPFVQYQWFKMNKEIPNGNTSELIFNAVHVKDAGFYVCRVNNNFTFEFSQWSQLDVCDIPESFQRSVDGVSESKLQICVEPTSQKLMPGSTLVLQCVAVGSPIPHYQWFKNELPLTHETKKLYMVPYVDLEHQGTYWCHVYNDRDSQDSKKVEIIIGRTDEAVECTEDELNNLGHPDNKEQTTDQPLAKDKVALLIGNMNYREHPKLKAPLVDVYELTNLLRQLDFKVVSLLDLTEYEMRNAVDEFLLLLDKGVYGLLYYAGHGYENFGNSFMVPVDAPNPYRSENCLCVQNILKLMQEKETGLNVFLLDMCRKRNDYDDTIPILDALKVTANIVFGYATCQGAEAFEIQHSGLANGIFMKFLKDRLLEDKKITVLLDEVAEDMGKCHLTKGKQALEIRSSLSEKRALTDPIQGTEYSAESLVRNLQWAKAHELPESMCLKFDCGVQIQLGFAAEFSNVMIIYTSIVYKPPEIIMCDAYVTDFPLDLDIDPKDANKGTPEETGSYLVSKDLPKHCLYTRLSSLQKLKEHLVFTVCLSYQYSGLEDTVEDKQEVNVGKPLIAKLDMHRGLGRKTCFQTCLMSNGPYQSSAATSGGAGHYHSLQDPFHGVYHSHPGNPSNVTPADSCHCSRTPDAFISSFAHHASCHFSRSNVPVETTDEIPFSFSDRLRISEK
T1 sequence (O95999 1-233 partner): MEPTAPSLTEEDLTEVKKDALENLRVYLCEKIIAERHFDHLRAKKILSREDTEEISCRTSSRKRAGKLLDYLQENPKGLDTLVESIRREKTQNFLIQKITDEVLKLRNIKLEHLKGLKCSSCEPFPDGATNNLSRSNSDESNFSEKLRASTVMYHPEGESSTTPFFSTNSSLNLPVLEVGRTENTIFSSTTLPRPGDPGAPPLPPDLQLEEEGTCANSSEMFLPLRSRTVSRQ
Source text: FIG. 2. In silico screening identifies small molecules targeting the predicted BCL10-binding groove within MALT1 (Ig1-2). (A) We performed a structure-guided in silico screen of 3 million compounds, using the LibDock program from Discovery Studio 3.5, in order to identify candidate molecules that could potentially fit within the identified groove in the MALT1 Ig1-2 domain. Lipinski's rule of five filters (LipinskiRo5) were applied to enrich for compounds with drug-like properties. Potential compound hits were then screened for their ability to disrupt the MALT1-BCL10 interaction using SPR analysis. 9 candidate compounds were then subjected to a second, ELISA-based MALT1-BCL10 interaction assay, identifying 2 compounds that could disrupt the interaction in both SPR and ELISA assays. M1i-124 and M1i-1255 are the two compounds identified to disrupt the BCL10-MALT1 interaction. […]
The LibDock program from Discovery Studio 3.5 was used to perform a structure-guided in silico screen of 3 million compounds to identify candidate molecules that could potentially fit within the identified groove of MALT1 Igl-Ig2 domain, found to be critical for BCL10-MALT1 interaction. […] Top hits were further evaluated for their potential to disrupt the BCL10-MALT1 interaction through secondary SPR and ELISA-based assays as described below. […]

[2] = system: IL-2 secretion; assay: IL-2 secretion (ELISA); format: cell-based, human; conditions: dose-response
Procedure: Expression of cytokines from cell culture supernatants was measured 24h after treatment with 0, 0.01, 0.03, 0.1, 0.3, 1, or 3 uM of compounds using the following ELISA kits according to the manufacturer's instructions: Human IL-2 ELISA (BioLegend Cat #431804), Human IL-6 ELISA (BioLegend Cat #430504), and Human IL-10 ELISA (BioLegend Cat #430604).

IC50 [1] | Structure (SMILES) | IL-2 secretion [2]
22 µM | O=S(=O)(NCc1ccc2c(c1)OCO2)c1ccc(Cc2ccc(S(=O)(=O)NCc3ccc4c(c3)OCO4)cc2)cc1 [M1i-124] | –
– | COc1ccc(CNS(=O)(=O)c2ccc(Cc3ccc(S(=O)(=O)NCc4ccc(OC)cc4)cc3)cc2)cc1 [M1i-124d1] | dose-dependent inhibition
